Experimental data as given in patent US12180084B2, “Cerium (III) carbonate formulations” (THE REGENTS OF THE UNIVERSITY OF CALIFORNIA, priority 2019, dated 2024).

Assay: CR dye photodegradation in TiO2-based sunscreen film (Neutrogena Broad Spectrum Mineral Sunscreen SPF 60+)
Method: Films on filter paper were fabricated and photoreactor experiments were conducted exactly the same way as described in Example 7.3, using CR dye, except UV irradiation in the photoreactor was conducted for a period of 4 h. These films contained either no UV-protecting agent, 3.0 wt. % of Ce2(CO3)3·6H2O that was synthesized according to Example 3, 3.0 wt. % of commercial Ce2(CO3)3·xH2O (Acros Organics), or 3.0 wt. % of ZnO (NANOBYK-3840). […] Upon adding 3 wt. % of Ce2(CO3)3·6H2O synthesized according to Example 3 to the sunscreen formulation, a decrease in the amount of CR dye photodegradation to 15±1% is observed. […] When cerium carbonate consisting of Ce2(CO3)3·xH2O from Acros Organics is instead used in place of Ce2(CO3)3·6H2O synthesized according to Example 3, photoprotection with 24±2% CR dye photodegradation is observed. The properties of Ce2(CO3)3·xH2O from Acros Organics have been ascribed in Example 4, and these aspects are borne out in conjunction with sunscreen-based formulations here as well. When instead of cerium carbonate ZnO (NANOBYK-3840) is used as a UV-protecting agent, less effect on CR dye photodegradation is observed. This is a similar outcome to observations with MB dye and ZnO-based sunscreen formulation in Example 7.2.
The amount of Ce2(CO3)3·6H2O synthesized according to Example 3 that was incorporated into the TiO2-based sunscreen was increased to 5.0 wt. %, and results are shown in FIGS. 23A-23B and are summarized in Table 4. […] There is a slight diminishing return for adding Ce2(CO3)3·6H2O both here and in Example 7.2, but the effect of increasing Ce2(CO3)3·6H2O on organic-molecule photoprotection is much more pronounced than in the case of ZnO.

% of CR dye photodegradation after 4 h of UV irradiation in photoreactor (3.0 wt. % added agent relative to sunscreen weight, listed as Ce2(CO3)3·6H2O synthesized according to Example 3): 15±1%
% of CR dye photodegradation after 4 h of UV irradiation in photoreactor (3.0 wt. % added agent relative to sunscreen weight, listed as Ce2(CO3)3•6H2O synthesized according to Example 3): 15 ± 1%
% of CR dye photodegradation after 4 h of UV irradiation in photoreactor (5.0 wt. % added agent relative to sunscreen weight): 10 ± 1%
Compound: O.O.O.O.O.O.O=C([O-])[O-].O=C([O-])[O-].O=C([O-])[O-].[Ce+3].[Ce+3] [Ce2(CO3)3·6H2O]
